From PMC8778526, “N-Alkylmorpholines: Potent Dermal and Transdermal Skin Permeation Enhancers” (Pharmaceutics, 2021)
Values after ≈ are worked out from the molar mass of the structure shown. Read-outs that look alike come from different tables or passages of the source.

Tests used:
porcine skin [1] = assay: ATR-FTIR of enhancer-treated skin; details: skin treated 24 h with 1% enhancer in 60% PG
Description: ATR-FTIR is a powerful method to investigate the interactions of enhancers with SC lipids and proteins. […] Pure distilled water or 60% aqueous PG were applied as controls. […] IR spectra of the skin surface were recorded by an IR spectrometer (Nicolet iZ10, Thermo Scientific, Waltham, MA, USA), equipped with a single reflection […] ZnSe crystal (PIKE Technologies, Madison, WI, USA) at constant clamping pressure. […] Collected spectra were normalised, to reduce potential variations in the overall intensity of the spectra. Selected regions (amide I, amide II and CH2 stretching vibration bands) were fitted in Origin Pro (OriginLab, Wellesley Hills, MA, USA). The position, height and area of these selected peaks were compared among the particular spectra and the variances between peak characteristics were statistically evaluated by GraphPad Prism® software (GraphPad Software, Inc., La Jolla, CA, USA).

porcine skin [2] = assay: In vitro permeation experiment, Franz-type diffusion cells; details: for ER, enhancement ratio: flux with/without 1% enhancer; for Jss, steady-state flux of the model drug: control, pure vehicle 60% PG without enhancer
porcine skin [3] = assay: Skin electrical impedance measurements; details: 1% enhancer, 48 h; control ratio set to 1
Description: For monitoring the skin integrity and characterisation of the permeation enhancers’ effect, the electrical impedance of each skin was measured, using an LCR 4080 multimeter (Voltcraft, Hirschau, Germany), set in parallel-equivalent mode with an alternating current frequency of 120 Hz. The measurements were carried out according to established protocols. The measurements were performed in the Franz diffusion cells. After the initial hydration and equilibration, the donor compartments were filled with 500 μL of PBS. One wire of the multimeter was placed in PBS in the acceptor, the other in the donor phase and the electrical impedance was determined. The next measurement was taken after the 48 h permeation experiment. When the donor samples ([…]) were removed, they were replaced with 500 μL PBS and the electrical impedance was re-measured. The electrical impedance ratio (EIR) was calculated for each cell as (2) EIR=EI1/EI2 where EI1 [kΩ] is electrical impedance before and EI2 [kΩ] after the 48 h treatment by the donor formulation.

porcine skin [4] = assay: Transepidermal water loss (TEWL) measurements, reversibility of enhancer effect; details: for TEWL after the 2 h treatment: 1% enhancer in 60% PG applied 2 h; for TEWL after the 24 h treatment: 1% enhancer in 60% PG applied 24 h; for TEWL after 20 h: after 2 h treatment and enhancer removal; for TEWL within 24 h after the enhancers' removal: after 24 h treatment; for reversibility of the effect on the skin barrier: short-term 2 h application
Description: The reversibility of the enhancers’ effects was studied by evaluation of the difference in the water loss through the intact and enhancer-treated skin. […] The TEWL measurements were carried out according to established protocols. The skin samples were mounted into Franz diffusion cells, with the acceptor compartments filled with PBS pH 7.4 and placed in a water bath at 32 °C to hydrate and equilibrate. At first, the base TEWL values of untreated skin samples were measured. Each of the Franz diffusion cells was removed from the water bath, dried completely with compressed air and inserted into a holder. Then the TEWL probe was placed 1.0 cm above the skin surface. The measuring time was on average 80–100 s. […] The cells were then incubated at 32 °C. The donor samples were removed after 2 h or 24 h and the skin surface was washed with 0.5 mL of PBS, gently blotted dry and thoroughly dried with compressed air. After the enhancer was removed, TEWL was measured at predetermined intervals over 42 or 50 h.

[5] = test system: human keratinocytes HaCaT; assay: Cytotoxicity, CCK-8 viability assay; format: cell-based; details: read-out: IC50, concentration causing 50% decrease in cell viability, 24 h incubation
Description: Cytotoxicity of the three best enhancers (Mo10, Mo12, Mo14) was evaluated on non-malignant spontaneously immortalised human keratinocytes HaCaT (Cell Lines Service, Eppelheim, Germany). The cell line was cultivated in Dulbecco’s Modified Eagle’s Medium (DMEM, Sigma Aldrich, St. Luis, MO, USA), supplemented with 10% Fetal Bovine Serum (Sigma Aldrich, St. Luis, MO, USA) in a Petri dish at 37 °C in a humidified atmosphere of 5% CO2. Cells were subcultured two times a week. For cytotoxicity experiments, 96-well plates were seeded with cells (at a density of 10,000 cells per well) in 100 μL of culture medium and incubated at 37 °C in a humidified atmosphere of 5% CO2 for 24 h.
The enhancers were dissolved in DMEM, left in an ultrasonic bath for 15 min and then kept at 37 °C overnight. On the next day, 10 μL of the particular enhancer solution was added to 100 μL of cell suspensions, to receive final enhancer concentrations in the range of 0.9–110 μM (concentrations determined according to our preliminary testing). The cells were incubated with tested compounds for 24 h. Then, the cell viability was determined, using the Cell Counting Kit-8 (CCK-8, Sigma Aldrich, St. Luis, MO, USA). The cells were incubated with 10 μL of the CCK-8 for 2 h. Thereafter, absorbance was measured at 450 nm, using the Infinite 200 PRO microplate reader (Tecan Austria GmbH, Austria). The mean optical density (absorbance) was used to calculate the percentage of cell viability as follows: percentage of cell viability=Atreatment−Ablank/Acontrol −Ablank×100 %, where A is the absorbance.

[6] = cited from earlier work
[7] = cited from earlier work; remark: listed apart in the source
[8] = ref Drugbank, ALOGPS; cited from earlier work
[9] = Effect of enhancers on drug solubility in the donor phase; details: 32 °C, aqueous with cosolvent or surfactant or cyclodextrin, thermodynamic from solid
porcine skin [10] = assay: Entrapment of model drug in the skin after the permeation experiment; format: in vitro ADME; details: control without enhancer
Description: At the end of the permeation experiment, the Franz diffusion cells were dismounted and the skin surface was thoroughly washed by distilled water and PBS. The skin area, which was exposed to the donor phase, was cut out, weighed and extracted by 5 mL of the respective mobile phase by shaking for 24 h at 32 °C on a laboratory shaker. The extracts were then filtered through 0.45 µm cellulose filters to eliminate skin residues and analysed by HPLC. Drug concentration in the skin, expressed as mg of model drugs per g of the skin tissue was calculated by dividing permeants’ amounts by the respective skin weights.

[11] = In vitro permeation experiment, Franz-type diffusion cells; details: pig, pH 7.4
[12] = donor phase: 60% PG in distilled water without enhancer

For `CCCCCCCCC=CCCCCCCCCN1CC(CO)OC(OC)C1` (stereo not shown) [Mo18/1], the “vasCH2, position of asymmetric CH2 stretching vibration” value (“vasCH2, position” below) (porcine skin [1]) was 2920.35 ± 0.36 cm⁻¹, the “vsCH2, position of symmetric CH2 stretching vibration” value (from here on “vsCH2, position”) (porcine skin [1]) was 2850.76 ± 0.15 cm⁻¹ and the “ER, enhancement ratio” value (porcine skin [2]; permeant DF) was 1.94. For the same molecule, the “ER, enhancement ratio” value (porcine skin [2]; permeant IND) was 3.94 and the “ER, enhancement ratio” value (porcine skin [2]; permeant TH) was 5.01.
For `CCCCCCCCCCN1CC(CO)OC(OC)C1` (stereo not shown) [Mo10], the “EIR, electrical impedance ratio (before/after treatment)” value (porcine skin [3]) was 1.66 ± 0.19, the “TEWL after the 2 h treatment” value (porcine skin [4]) was 11.7 ± 0.8 g·m^−2·h^−1 and the “TEWL after the 24 h treatment” value (porcine skin [4]) was 15.6 ± 2.2 g·m^−2·h^−1. The “TEWL after 20 h” value (porcine skin [4]) was 4.8 ± 0.1 g·m^−2·h^−1, the “TEWL within 24 h after the enhancers' removal” value (from here on “TEWL within 24 h”) (porcine skin [4]) was 4.3 ± 0.7 g·m^−2·h^−1 and the “reversibility of the effect on the skin barrier” value (shortened to “reversibility of the effect”) (porcine skin [4]) was “reversible”. For the same molecule, the “vasCH2, position” value (porcine skin [1]) was 2921.91 ± 0.40 cm⁻¹, the “vsCH2, position” value (porcine skin [1]) was 2852.58 ± 0.71 * cm^−1 and the IC50 [5] was 94 ± 1.5 µM. The “ER, enhancement ratio” value (porcine skin [2]; permeant DF) was 1.43, the “ER, enhancement ratio” value (porcine skin [2]; permeant IND) was 7.80 and the “ER, enhancement ratio” value (porcine skin [2]; permeant TH) was 9.87.
In the case of dodecyl amino glucoside, the IC50 ([6]; ref 34) is listed as 24 µM.
For `CCCCCCCCCCCCCCCCCCN1CC(CO)OC(OC)C1` (stereo not shown) [Mo18], the “ER, enhancement ratio” value (porcine skin [2]; permeant DF) was 1.14, the “ER, enhancement ratio” value (porcine skin [2]; permeant IND) was 1.95 and the “ER, enhancement ratio” value (porcine skin [2]; permeant TH) was 3.06.
For `CCCCCCCCCCCCOC(=O)CCCCCN(C)C` [DDAK], the IC50 ([6]; ref 29) is listed as 76 µM.
For `CCCCCCCCN1CC(CO)OC(OC)C1` (stereo not shown) [Mo8], the “ER, enhancement ratio” value (porcine skin [2]; permeant DF) was 1.17, the “ER, enhancement ratio” value (porcine skin [2]; permeant IND) was 6.28 and the “ER, enhancement ratio” value (porcine skin [2]; permeant TH) was 4.63.
For `Cn1c(=O)c2[nH]cnc2n(C)c1=O` [TH, theophylline], the “solubility in PBS” value ([7]; ref 25) is listed as 7650 µg/mL (≈ 42.5 mM), the logP [8] is listed as −0.02 and the solubility at 48 h [9] is listed as 20000 ± 620 µg/mL.
In the case of `CCCCN1CC(CO)OC(OC)C1` (stereo not shown) [Mo4], the “ER, enhancement ratio” value (porcine skin [2]; permeant DF) is reported as 1.04, the “ER, enhancement ratio” value (porcine skin [2]; permeant IND) is reported as 5.78 and the “ER, enhancement ratio” value (porcine skin [2]; permeant TH) is reported as 1.38.
In the case of `CCCCCCCCCCCCN1CCCCCC1=O` [Azone, N-dodecylazacykloheptan-2-on, reference compound], the “vasCH2, position” value (porcine skin [1]) is given as 2921.84 ± 0.34 cm⁻¹, the “vsCH2, position” value (porcine skin [1]) is given as 2851.16 ± 0.21 * cm^−1 and the IC50 ([6]; ref 57) is given as 49 µM. For the same molecule, the IC50 ([6]; ref 58) was 117 µM.
In the case of `CCCCCCCCCCCCOC(=O)CCCCCN.CCCCCCCCCCCCOC(=O)CCCCCNC(=O)O` [Transkarbam 12], the IC50 ([6]; ref 29) is given as 21 µM.
For `CCCCCCCCCCCCN1CC(CO)OC(OC)C1` (stereo not shown) [Mo12], the “EIR, electrical impedance ratio (before/after treatment)” value (porcine skin [3]) was 1.60 ± 0.13, the “TEWL after the 2 h treatment” value (porcine skin [4]) was 8.2 ± 0.3 g·m^−2·h^−1 and the “TEWL after the 24 h treatment” value (porcine skin [4]) was 18.5 ± 1.2 g·m^−2·h^−1. For the same molecule, the “TEWL after 20 h” value (porcine skin [4]) was 3.2 ± 0.3 g·m^−2·h^−1, the “TEWL within 24 h” value (porcine skin [4]) was 9.5 ± 0.1 g·m^−2·h^−1 and the “reversibility of the effect” value (porcine skin [4]) was “reversible”. For the same molecule, the “vasCH2, position” value (porcine skin [1]) was 2921.14 ± 0.61 cm⁻¹, the “vsCH2, position” value (porcine skin [1]) was 2851.56 ± 0.23 * cm^−1 and the IC50 [5] was 41 ± 0.8 µM. The “ER, enhancement ratio” value (porcine skin [2]; permeant DF) was 1.81, the “ER, enhancement ratio” value (porcine skin [2]; permeant IND) was 10.01 and the “ER, enhancement ratio” value (porcine skin [2]; permeant TH) was 14.53.
For `O=C(O)Cc1ccccc1Nc1c(Cl)cccc1Cl` [DF, diclofenac sodium], the “amount of the model drug in the skin” value (porcine skin [10]) is given as 380.10 ± 50.52 μg·gskin^−1, the “solubility in PBS” value ([7]; ref 27) is given as 5150 µg/mL and the solubility at 48 h [9, 12] is given as 57800 ± 2550 µg/mL. The Papp at 48 h [11] was 0.0275 ×10⁻⁶ cm/s and the “Jss, steady-state flux of the model drug” value (porcine skin [2]) was 5.74 ± 1.04 µg·cm^−2·h^−1.
In the case of `CCCCCCCCCCCCCCN1CC(CO)OC(OC)C1` (stereo not shown) [Mo14], the “EIR, electrical impedance ratio (before/after treatment)” value (porcine skin [3]) is reported as 1.64 ± 0.14, the “TEWL after the 2 h treatment” value (porcine skin [4]) is reported as 9.0 ± 0.4 g·m^−2·h^−1 and the “TEWL after the 24 h treatment” value (porcine skin [4]) is reported as 18.1 ± 0.8 g·m^−2·h^−1. The “TEWL after 20 h” value (porcine skin [4]) was 4.6 ± 0.7 g·m^−2·h^−1, the “TEWL within 24 h” value (porcine skin [4]) was 4.7 ± 0.1 g·m^−2·h^−1 and the “reversibility of the effect” value (porcine skin [4]) was “reversible”. For the same molecule, the “vasCH2, position” value (porcine skin [1]) was 2919.48 ± 0.42 cm⁻¹, the “vsCH2, position” value (porcine skin [1]) was 2850.74 ± 0.14 cm⁻¹ and the IC50 [5] was 41.5 ± 1.5 µM. The “ER, enhancement ratio” value (porcine skin [2]; permeant DF) was 2.58, the “ER, enhancement ratio” value (porcine skin [2]; permeant IND) was 9.10 and the “ER, enhancement ratio” value (porcine skin [2]; permeant TH) was 8.67.
In the case of `COc1ccc2c(c1)c(CC(=O)O)c(C)n2C(=O)c1ccc(Cl)cc1` [IND, indomethacin], the “amount of the model drug in the skin” value (porcine skin [10]) is given as 32.43 ± 6.98 μg·gskin^−1, the “solubility in PBS” value ([7]; ref 26) is given as 650 µg/mL (≈ 1.82 mM) and the solubility at 48 h [9, 12] is given as 950 ± 510 µg/mL. The Papp at 48 h [11] was 0.104 ×10⁻⁶ cm/s and the “Jss, steady-state flux of the model drug” value (porcine skin [2]) was 0.51 ± 0.09 µg·cm^−2·h^−1.
